Source: patent US20050031670A1, “Weight reduction or weight controlling composition” (priority 2001, published 2005)
Counter-ions that a name gives are not always drawn.

Key:
Obese patients (BMI≧30) [1] = assay: Weight loss in obese patients given bupropion without food component or dietary intervention (Example 2, comparative); format: in vivo, human; settings: 300 mg bupropion (150 mg twice a day), no food component nor dietary counseling
Procedure: Example 2 (Comparative): An analysis was conducted of obese patients (BMI≧30) who were given 300 mg of bupropion (150 mg twice a day) in the absence of the food component of the invention nor any other dietary counseling or intervention. Weight loss was negligible, the average weight loss per patient in the 300 mg study was 2.4 Kg after 12 months.

Obese patients (BMI≧30) [2] = assay: Weight loss in obese patients given bupropion plus low calorie nutritional beverage (Example 3, invention); format: in vivo, human; settings: 600 Kcal deficit diet, end of 6 months
Procedure: Example 3 (Invention): Obese patients (BMI≧30) were given 300 mg (N=110) or 400 mg (N=105) of bupropion and a low calorie, nutritional beverage (Slim Fast™, 11.5 oz.) for two meals per day for 6 months to achieve a 600 Kcal deficit diet. That is, each patient was given 150 or 200 mg of bupropion HCL sustained release, respectively, in a nutritional beverage (a food component of the invention) twice a day. At the end of the end of 6 months, the average weight loss was 7.2 kg and 10.1 kg for the 300 mg and 400 mg groups, respectively.

SMILES | Weight loss (in words) (Obese patients (BMI≧30) [1]) | average weight loss per patient (Obese patients (BMI≧30) [1]; after 12 months) | average weight loss (Obese patients (BMI≧30) [2]; 300 mg group (150 mg twice a day) in Slim Fast 11.5 oz for two meals per day) | average weight loss (Obese patients (BMI≧30) [2]; 400 mg group (200 mg twice a day) in Slim Fast 11.5 oz for two meals per day)
CC(NC(C)(C)C)C(=O)c1cccc(Cl)c1 (racemic) [bupropion, (±)-1-(3-chlorophenyl)-2-[(1,1-dimethyl)amino]-1-propanone hydrochloride] | negligible | 2.4 kg |  | 
CC(NC(C)(C)C)C(=O)c1cccc(Cl)c1 (single isomer, unassigned; (+)) [bupropion HCL sustained release, (+)-2-(tert-butylamino)-3′-chloropropiophenome hydrochloride] |  |  | 7.2 kg | 10.1 kg
